Patent EP2199292A1, “7-azaindirubins, 7'-azaindirubins, 7-7'-diazaindirubin and the corresponding 3'-oxime ether derivates: production thereof, their production and use as a medicament” (Technische Universität Kaiserslautern, priority 2008, dated 2010)
Like-named read-outs stand apart in the source and are kept apart here. Blank lines part the entries; values can stand above or below the molecule they belong to.

Legend:
[1] = tested on: murine C6 glioblastoma cells; details: compared with parent compound 5-methylindirubin; WO 03/070703; cited from earlier work
human cancer cell lines = assay: Antiproliferative activity against human cancer cell lines, compared with indirubin; assay type: cell-based; details: as compared to the parent molecule
Experimental: (§1) The antiproliferative activity was determined using the Sulforhodamin B assay (SRB assay) as reported previously (Vatter et al. 2005, Int. J. Clin. Pharmacal.Ther. 43, 607). Table 1: Inhibition of tumor cell proliferation, SRB assay.

HT29 = assay: Inhibition of tumor cell proliferation, Sulforhodamin B assay (SRB assay), HT29; assay type: cell-based; details: Homo sapiens, HT-29
Experimental: as §1

MCF7 = assay: Inhibition of tumor cell proliferation, Sulforhodamin B assay (SRB assay), MCF7; assay type: cell-based; details: Homo sapiens
Experimental: as §1

SMILES: Cc1cc2c(cc1O)NC(=O)C2=C1Nc2ccccc2C1=O
inhibition of murine C6 glioblastoma cells [1]: as effective as the parent compound

SMILES: O=C1Nc2ccccc2C1=C1Nc2ncccc2C1=O [E843, 7'-Azaindirubin]
antiproliferative activity (human cancer cell lines): markedly augmented

IC50 (HT29; HT29, SRB assay, read-out: Inhibition of cell proliferation IC50): 5 nM
IC50 (HT29; HT29 colon tumor cells, IC50 values ranging down to, read-out: inhibition of proliferation IC50): ≥ 2 nM
IC50 (MCF7; MCF7, MCF-7 breast cancer cells, IC50 values ranging down to, read-out: inhibition of proliferation IC50): ≥ 2 nM
IC50 (MCF7; MCF7, SRB assay, read-out: Inhibition of cell proliferation IC50): 7 nM
SMILES: O=C1Nc2ncccc2C1=C1Nc2ncccc2C1=O [E864, 7,7'-Diazaindirubin]

SMILES: O=C1Nc2ncccc2/C1=C1/Nc2ccccc2C1=O [Example 12, 7-Azaindirubin]
antiproliferative activity (human cancer cell lines): markedly augmented
